Assays:
Test in all cases: relative viability (nuclei count vs DMSO), 5 days (fraction); higher = more cells survive
NCI-H1563 = test system: NCI-H1563
Procedure, shortened: (§1)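 Medians of duplicate plates are given as relative viability. That measure is the nuclei count in treated wells divided by the count in vehicle wells. Counts were taken on 4× images of lung cancer cell lines in 1536-well plates, 5 days after pin-tool dosing the day after seeding with one drug alone or a fixed anchor-drug dose plus five library-drug doses (not always all listed) in √10 steps.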

PC-3 [JPC-3] = test system: PC-3 [JPC-3]
Procedure, shortened: as §1

EKVX = test system: EKVX
Procedure, shortened: as §1

NCI-H1975 = test system: NCI-H1975
Procedure, shortened: as §1

LCLC-97TM1 = test system: LCLC-97TM1
Procedure, shortened: as §1

NCI-H661 = test system: NCI-H661
Procedure, shortened: as §1

PC-14 = test system: PC-14
Procedure, shortened: as §1

RERF-LC-KJ = test system: RERF-LC-KJ
Procedure, shortened: as §1

NCI-H1355 = test system: NCI-H1355
Procedure, shortened: as §1

NCI-H2342 = test system: NCI-H2342
Procedure, shortened: as §1

NCI-H2228 = test system: NCI-H2228
Procedure, shortened: as §1

NCI-H1650 = test system: NCI-H1650
Procedure, shortened: as §1

H3255 = test system: H3255
Procedure, shortened: as §1

HCC-15 = test system: HCC-15
Procedure, shortened: as §1

LK-2 = test system: LK-2
Procedure, shortened: as §1

NCI-H322M = test system: NCI-H322M
Procedure, shortened: as §1

NCI-H520 = test system: NCI-H520
Procedure, shortened: as §1

NCI-H1755 = test system: NCI-H1755
Procedure, shortened: as §1

CAL-12T = test system: CAL-12T
Procedure, shortened: as §1

HCC-827 = test system: HCC-827
Procedure, shortened: as §1

NCI-H2405 = test system: NCI-H2405
Procedure, shortened: as §1

NCI-H1734 = test system: NCI-H1734
Procedure, shortened: as §1

`COc1nc(C)cnc1NS(=O)(=O)c1cccnc1-c1ccc(-c2nnco2)cc1` [Zibotentan] + Cc1nc(Nc2ncc(C(=O)Nc3c(C)cccc3Cl)s2)cc(N2CCN(CCO)CC2)n1 [Dasatinib] (partner 0.075 µM) was tested, and the relative viability (NCI-H1563; first compound 0.08 µM) was 0.493, the relative viability (NCI-H1563; first compound 0.253 µM) was 0.435 and the relative viability (NCI-H1563; first compound 0.8 µM) was 0.476. The relative viability (NCI-H1563; first compound 2.53 µM) was 0.397, the relative viability (PC-3 [JPC-3]; first compound 0.08 µM) was 0.989 and the relative viability (PC-3 [JPC-3]; first compound 0.253 µM) was 1.02. For the same molecule, the relative viability (PC-3 [JPC-3]; first compound 0.8 µM) was 1.01, the relative viability (PC-3 [JPC-3]; first compound 2.53 µM) was 1.12 and the relative viability (EKVX; first compound 0.08 µM) was 0.612. It also gave a relative viability (EKVX; first compound 0.253 µM) of 0.529, a relative viability (EKVX; first compound 0.8 µM) of 0.392 and a relative viability (EKVX; first compound 2.53 µM) of 0.572. For the same molecule, the relative viability (NCI-H1975; first compound 0.08 µM) was 0.378, the relative viability (NCI-H1975; first compound 0.253 µM) was 0.341 and the relative viability (NCI-H1975; first compound 0.8 µM) was 0.307. For the same molecule, the relative viability (NCI-H1975; first compound 2.53 µM) was 0.376, the relative viability (LCLC-97TM1; first compound 0.08 µM) was 0.823 and the relative viability (LCLC-97TM1; first compound 0.253 µM) was 0.841. The relative viability (LCLC-97TM1; first compound 0.8 µM) was 0.882, the relative viability (LCLC-97TM1; first compound 2.53 µM) was 0.861 and the relative viability (NCI-H661; first compound 0.08 µM) was 0.924. It also gave a relative viability (NCI-H661; first compound 0.253 µM) of 0.805, a relative viability (NCI-H661; first compound 0.8 µM) of 0.943 and a relative viability (NCI-H661; first compound 2.53 µM) of 0.939. For the same molecule, the relative viability (PC-14; first compound 0.08 µM) was 0.26, the relative viability (PC-14; first compound 0.253 µM) was 0.172 and the relative viability (PC-14; first compound 0.8 µM) was 0.243. It also gave a relative viability (PC-14; first compound 2.53 µM) of 0.277, a relative viability (RERF-LC-KJ; first compound 0.08 µM) of 0.863 and a relative viability (RERF-LC-KJ; first compound 0.8 µM) of 0.671. The relative viability (RERF-LC-KJ; first compound 2.53 µM) was 0.749, the relative viability (NCI-H1355; first compound 0.08 µM) was 0.691 and the relative viability (NCI-H1355; first compound 0.253 µM) was 0.743. For the same molecule, the relative viability (NCI-H1355; first compound 0.8 µM) was 0.718, the relative viability (NCI-H1355; first compound 2.53 µM) was 0.832 and the relative viability (NCI-H2342; first compound 0.08 µM) was 0.354. For the same molecule, the relative viability (NCI-H2342; first compound 0.253 µM) was 0.308, the relative viability (NCI-H2342; first compound 0.8 µM) was 0.309 and the relative viability (NCI-H2342; first compound 2.53 µM) was 0.314. For the same molecule, the relative viability (NCI-H2228; first compound 0.08 µM) was 0.554, the relative viability (NCI-H2228; first compound 0.253 µM) was 0.509 and the relative viability (NCI-H2228; first compound 0.8 µM) was 0.495. It also gave a relative viability (NCI-H2228; first compound 2.53 µM) of 0.608, a relative viability (NCI-H1650; first compound 0.08 µM) of 0.35 and a relative viability (NCI-H1650; first compound 0.8 µM) of 0.27. It also gave a relative viability (NCI-H1650; first compound 2.53 µM) of 0.4, a relative viability (H3255; first compound 0.08 µM) of 0.406 and a relative viability (H3255; first compound 0.253 µM) of 0.311. The relative viability (H3255; first compound 0.8 µM) was 0.632, the relative viability (H3255; first compound 2.53 µM) was 0.325 and the relative viability (HCC-15; first compound 0.08 µM) was 0.601. For the same molecule, the relative viability (HCC-15; first compound 0.8 µM) was 0.512, the relative viability (HCC-15; first compound 2.53 µM) was 0.684 and the relative viability (LK-2; first compound 0.08 µM) was 0.293. It also gave a relative viability (LK-2; first compound 0.253 µM) of 0.221, a relative viability (LK-2; first compound 0.8 µM) of 0.275 and a relative viability (LK-2; first compound 2.53 µM) of 0.318. For the same molecule, the relative viability (NCI-H322M; first compound 0.08 µM) was 0.235, the relative viability (NCI-H322M; first compound 0.253 µM) was 0.245 and the relative viability (NCI-H322M; first compound 0.8 µM) was 0.27. The relative viability (NCI-H322M; first compound 2.53 µM) was 0.269, the relative viability (NCI-H520; first compound 0.08 µM) was 0.252 and the relative viability (NCI-H520; first compound 0.253 µM) was 0.222. The relative viability (NCI-H520; first compound 0.8 µM) was 0.224, the relative viability (NCI-H520; first compound 2.53 µM) was 0.237 and the relative viability (NCI-H1755; first compound 0.08 µM) was 0.433. It also gave a relative viability (NCI-H1755; first compound 0.253 µM) of 0.413, a relative viability (NCI-H1755; first compound 0.8 µM) of 0.4 and a relative viability (NCI-H1755; first compound 2.53 µM) of 0.473. For the same molecule, the relative viability (CAL-12T; first compound 0.08 µM) was 0.484, the relative viability (CAL-12T; first compound 0.253 µM) was 0.473 and the relative viability (CAL-12T; first compound 0.8 µM) was 0.34. It also gave a relative viability (CAL-12T; first compound 2.53 µM) of 0.479, a relative viability (HCC-827; first compound 0.08 µM) of 0.394 and a relative viability (HCC-827; first compound 0.253 µM) of 0.267. For the same molecule, the relative viability (HCC-827; first compound 0.8 µM) was 0.247, the relative viability (HCC-827; first compound 2.53 µM) was 0.384 and the relative viability (NCI-H2405; first compound 0.08 µM) was 0.238. For the same molecule, the relative viability (NCI-H2405; first compound 0.253 µM) was 0.193, the relative viability (NCI-H2405; first compound 0.8 µM) was 0.218 and the relative viability (NCI-H2405; first compound 2.53 µM) was 0.212. It also gave a relative viability (NCI-H1734; first compound 0.08 µM) of 0.484, a relative viability (NCI-H1734; first compound 0.253 µM) of 0.42 and a relative viability (NCI-H1734; first compound 0.8 µM) of 0.487. For the same molecule, the relative viability (NCI-H1734; first compound 2.53 µM) was 0.564.

Reference: the supplement of paper PMC10307832
